Reference: US7790668B2, “2-methoxy-2,6-dimethyloctanal and its use as a fragrance ingredient” (Givaudan SA, priority 2005, dated 2010)

Assay: Odour threshold concentration by using an olfactometer
Details: for Odour threshold concentration, geometric mean: olfactometer, forced-choice triangle presentation, group of 12 panelists, both compounds measured on the same day under identical conditions; for odour threshold concentration, times lower compared to 6-methoxy-2,6-dimethylheptanal (Methoxymelonal): ratio of the geometric mean thresholds vs the prior-art compound
From the text: The odour threshold concentration is defined as the lowest concentration of the vapour of an odorous material in the air which can be detected by smell. The concentration can be measured by standard methods known in the art by using either olfactometry means or sniff-bottles allowing panelists to smell the presented headspace.
The olfactometer functions on the principle of a linear dilution of an odorant in a carrier gas. The quantity of odorant displaced depends on its vapour pressure and the carrier gas flow. A constant flow of nitrogen, regulated by a flow regulator, carries the odorant from a sample container to a mixing chamber. There, the carrier gas-odour mixture is diluted with odourless air. From the mixing chamber one part of the diluted odorous air is allowed to flow via a fused silica capillary to the sniffing funnel. The flow rate through the capillary, which determines the dosage of odorous air from the mixing chamber into the sniffing funnel, depends on the opening of the valve which can be regulated via PC from 1 to 256 ml in binary steps. The final dilution of the odorous air sample occurs in the glass funnel by flushing them permanently with odourless air at a flow rate of 8 L/min. Forced-choice triangle presentation is achieved by a special automated channel setting device where only in one position of a switch the odorant delivering capillary enters in the sniffing funnel, whereas in the two other positions the capillary is positioned outside the funnel and where the effluent is sucked away. After each trial the channel setting is changed automatically and in a random order. The concentration is calculated from the odorants vapour pressure and from the dilution ratios that were applied in the olfactometer, assuming that vapour saturation is achieved in the sample generator. As a control the concentration was by sampling a known volume from the capillary effluent into a headspace filter and then determined. The panelist starts sniffing at the olfactometer at a concentration level at which he perceives the odorant at medium intensity. After three correct answers in three consecutive trials (or four correct ones of five trials) at the same level, stimulus concentration is decreased by a factor of two to the next lower level, and so on, until the panelist has reached his threshold level.
Under identical conditions the odour threshold concentration for 6-methoxy-2,6-dimethyloctanal and 6-methoxy-2,6-dimethylheptanal was measured and compared by a group of 12 panelists. The sequence with which of the two compounds the panelist started smelling was alternated. Both compounds were measured on the same day and the following data were obtained: […]

Structure (SMILES)	Odour threshold concentration, geometric mean [ng/L]	odour threshold concentration, times lower compared to 6-methoxy-2,6-dimethylheptanal (Methoxymelonal)	odour threshold concentration, times lower compared to 6-methoxy-2,6-dimethylheptanal (Methoxymelonal) (listed as compound of the present invention) [times]
COC(C)(C)CCCC(C)C=O (stereo not shown) [6-methoxy-2,6-dimethylheptanal, reference compound]	1.92	–	–
CCC(C)(CCCC(C)C=O)OC (stereo not shown) [6-methoxy-2,6-dimethyloctanal]	0.78	about 2.5 times	2.46
